These results are taken from patent publication US20260306640A1, “TECHNOLOGIES TARGETING CELL STATES” (Auron Therapeutics, Inc., priority 2023, published 2026).

In general, GI50 refers to the concentration at which growth is held to half of that of the control. Broadly, the DC50 is the midpoint of the concentration-degradation curve.

Molecules are shown by their SMILES. Where two headings read alike, the source gives them in different places. Where only a bound is given, the exact number is not on record here.

In experiment [1] the test system is LASCPC-01 cells. Nature of the experiment: Cell growth inhibition, neuroendocrine prostate cancer line LASCPC-01 (Cell Titer Glo, day 7). The class given is cell-based. From the text: Among other things, provided technologies are useful for treating various diseases, disorders, or conditions. For example, in some embodiments, provided technologies are useful for treating cancer as confirmed in the present Example. […] In some embodiments, provided technologies can inhibit cell proliferation. In some embodiments, the present disclosure provides technologies for assessing various technologies, e.g., compounds, compositions, or methods. Among other things, the present Example provides technologies, e.g., cell growth inhibition assay, for assessing various technologies. […] In some embodiments, the following cell growth inhibition methods are utilized to assess provided technologies.
Neuroendocrine prostate cancer: Neuroendocrine prostate cancer line LASCPC-01 cells were cultured in DMEM F12 media with 5% FBS, 1% Penicillin/Streptomycin and HITES supplement (Hydrocortisone, Insulin, Transferrin, Estradiol and Sodium Selenite). Cells were plated at 1,425 cells/well of a 96 well plate. Compound and media were replenished every two days and at day 7 cell viability was assayed using Cell Titer Glo following manufacturer's instructions.
In some assessments, for cell growth inhibition, cells, e.g., MOLM13, NCI-H1048, and LASCPC-01 cells, were counted using a hemocytometer or automated cell counting in triplicates. In some assessments, proliferation in NEPC organoids as measured with Cell Titer Glo reagent (Promega). Growth inhibition was determined relative to vehicle control.
On the technique in general: Cellular ATP, detected with luciferase, serves as a proxy for viable cell number.

Experiment [2] has as its system LASCPC-01 cells. Nature of the experiment: Inhibition of growth in vivo, neuroendocrine prostate cancer (LASCPC-01) cells. Conditions: FIG. 3 (see also Example B3).
The target in experiment [3] is T1, KAT2A (Homo sapiens, UniProt Q92830). Nature of the experiment: KAT2A degradation, Western Blot (Jess), NCI-H1048 cells. The class given is cell-based. Details: degrader, Western blot (Jess). Put shortly: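 NCI-H1048 cells grown in HITES medium with 5% FBS were treated with compounds for 24 h at 37° C. Lysates were run by capillary Western (Jess) with KAT2A or KAT2B antibodies and chemiluminescent detection. DC50 derived from percent protein reduction versus DMSO control.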
A general note: A western blot detects proteins with antibodies after separation by electrophoresis.

Experiment [4] has as its target T1, KAT2A. Nature of the experiment: Western blot of KAT2A level in neuroendocrine prostate cancer LASCPC-01 cells, 24 hours. It is filed as cell-based. Conditions: FIG. 3 (A). Details: degrader, Western blot. The protocol: FIG. 3. Provided compounds can provide various activities. (A): Provided technologies can reduce KAT2A and KAT2B levels and histone acetylation levels. […] Cell viability (Cell Titer Glo) data relative to DMSO control after 7 days of treatment with compound 22 are presented as examples to confirm inhibition. GI50=5 nM. (C): Provided technologies can modulate cell states and induce differentiation. […] (D): Provided technologies can reduce KAT2A and KAT2B levels and histone acetylation levels including in neuroendocrine prostate cancer primary patient organoid. […] Concentrations are nM. […] Cell viability data relative to DMSO control after 21 days of treatment with compound 22 are presented as examples to confirm inhibition. GI50=3 nM. (F): Provided technologies can modulate cell states and induce differentiation.

The subject of experiment [5] is small cell lung cancer cells, e.g., NCI-H1048 cells. Nature of the experiment: Differentiation GSEA signatures from RNA-Seq, NCI-H1048. It is filed as cell-based, human. Conditions: NCI-H1048, FIG. 1. The protocol: In some embodiments, GSEA signatures are utilized for assessing cell states, differentiation, etc. In some assessments, differentiation GSEA signatures, e.g., from RNA-Seq was performed. A useful protocol is described herein as an example. In some assessments, LASCPC-01 cells, NEPC organoid cell pellets, or NCI-H1048 tumor pieces were flash frozen upon harvest and stored at −80° C. RNA was isolated, mRNA library was prepared (poly A enrichment) and sequencing was run. Reads were aligned to reference v38 using Kallis to generate gene count matrices for each sample. The gene count matrix was the input to the ML pipelines that generate normal atlas scores and cell state classification. It was also input to differential expression analysis using Edger in R. The output of differential expression was input to gene set enrichment analysis (GSEA) to define gene sets that were most shifted by treatment. For defining specific epithelial differentiation endpoints to generate the solid tumor differentiation box plots, cell state gene sets resulting from GSEA are consolidated by cell state to define a consensus set of genes that define epithelial differentiation. Other suitable technologies may also utilized in accordance with the present disclosure.

The target of a further experiment is KAT2B (Homo sapiens, UniProt Q92831). Nature of the experiment: KAT2B degradation, Western Blot, MOLM-13 cells. The class given is cell-based. Set-up: degrader, Western blot. On the procedure:
MOLM-13 cells were maintained at 37° C. in 5% CO2 and 90% humidity in RPMI 1640 supplemented with 20% fetal bovine serum (FBS) and 1× penicillin/streptomycin. Cells were plated in full media at 1-2 million cells/2 mL in a 6-well tissue culture treated plate with or without compounds for 24 h at 37° C. in 5% CO2.
MOLM-13 cells or NCI-H1048 cells were washed with PBS, then lysed with RIPA buffer containing 1×protease and phosphatase inhibitors (SantaCruz Biotechnologies Cat #sc-24948A). Protein was isolated by centrifugation at 12,000×g for 10 minutes at 4° C. and supernatant was collected. Protein was quantified via Bradford assay. Samples were diluted to 4 μg lysate in 16 μL RIPA buffer and then 4 μL of Jess Sample Buffer. Samples were heated at 95° C. for 5 minutes. Samples were loaded onto 12-230 kDa Jess™ Separation Module, 8×25 capillary cartridges (SM-W004, Biotechne). Antibodies loaded were: Primary antibody for KAT2A (GCN5L2 (C26A10) Rabbit mAb (3305, CST)) and for KAT2B (PCAF (C14G9)) Rabbit mAb (3378, CST) at 1:1000 and Anti-Rabbit Detection Module for Jess™ (Cat No #DM-001, Biotechne). Signal was detected by chemiluminescence.
DC50 values were determined from percent reduction of protein as compared to the DMSO control.

T1 sequence (Q92830 whole entry): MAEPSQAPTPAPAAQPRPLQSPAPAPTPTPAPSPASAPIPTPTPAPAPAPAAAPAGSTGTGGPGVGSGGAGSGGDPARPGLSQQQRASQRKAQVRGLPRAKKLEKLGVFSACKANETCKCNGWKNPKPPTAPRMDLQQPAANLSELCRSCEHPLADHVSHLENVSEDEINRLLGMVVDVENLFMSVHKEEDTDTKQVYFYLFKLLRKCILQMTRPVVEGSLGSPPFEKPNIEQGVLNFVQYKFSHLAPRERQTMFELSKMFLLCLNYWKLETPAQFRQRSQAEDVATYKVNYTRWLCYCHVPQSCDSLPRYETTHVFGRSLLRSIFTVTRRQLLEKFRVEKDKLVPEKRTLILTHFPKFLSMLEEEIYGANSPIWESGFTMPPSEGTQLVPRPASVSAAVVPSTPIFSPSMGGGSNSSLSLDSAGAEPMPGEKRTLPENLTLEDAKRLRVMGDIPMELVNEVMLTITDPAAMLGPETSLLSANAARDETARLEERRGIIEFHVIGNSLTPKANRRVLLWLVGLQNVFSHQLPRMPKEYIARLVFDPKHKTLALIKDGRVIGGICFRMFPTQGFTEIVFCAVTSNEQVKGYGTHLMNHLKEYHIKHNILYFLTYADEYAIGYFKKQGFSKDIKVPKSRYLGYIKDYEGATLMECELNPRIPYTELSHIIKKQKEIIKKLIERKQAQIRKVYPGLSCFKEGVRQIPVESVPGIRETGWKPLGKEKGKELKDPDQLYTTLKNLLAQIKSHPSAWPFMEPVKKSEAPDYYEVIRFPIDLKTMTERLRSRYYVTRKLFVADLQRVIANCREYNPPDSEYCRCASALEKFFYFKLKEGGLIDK
Chain of KAT2B (Q92831 whole entry): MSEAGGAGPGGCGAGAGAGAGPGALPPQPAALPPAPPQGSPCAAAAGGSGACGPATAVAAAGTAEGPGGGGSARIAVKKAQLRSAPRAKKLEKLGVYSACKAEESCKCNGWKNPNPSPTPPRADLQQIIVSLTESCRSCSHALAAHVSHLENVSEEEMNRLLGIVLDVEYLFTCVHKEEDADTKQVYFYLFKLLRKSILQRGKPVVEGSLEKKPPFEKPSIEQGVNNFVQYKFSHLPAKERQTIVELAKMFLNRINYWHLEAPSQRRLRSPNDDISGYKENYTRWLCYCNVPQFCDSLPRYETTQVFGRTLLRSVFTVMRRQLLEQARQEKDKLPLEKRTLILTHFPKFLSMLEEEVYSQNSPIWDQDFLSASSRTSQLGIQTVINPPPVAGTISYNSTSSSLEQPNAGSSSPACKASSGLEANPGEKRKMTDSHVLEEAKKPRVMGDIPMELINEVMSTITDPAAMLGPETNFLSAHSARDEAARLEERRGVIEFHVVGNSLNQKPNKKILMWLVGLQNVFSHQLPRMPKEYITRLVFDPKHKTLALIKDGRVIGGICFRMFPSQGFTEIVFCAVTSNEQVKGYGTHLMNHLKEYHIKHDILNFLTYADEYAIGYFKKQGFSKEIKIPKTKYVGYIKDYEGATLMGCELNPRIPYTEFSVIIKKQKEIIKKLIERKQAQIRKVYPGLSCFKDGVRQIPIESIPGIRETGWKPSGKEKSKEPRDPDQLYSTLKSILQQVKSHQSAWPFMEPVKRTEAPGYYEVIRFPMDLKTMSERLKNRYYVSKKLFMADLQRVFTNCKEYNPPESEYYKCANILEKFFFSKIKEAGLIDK

In the case of `CN1C[C@H](Nc2cnn(C)c(=O)c2Br)C[C@H](c2ccc(C(=O)N3CCC(CN4CCN(c5ccc6c(c5)CN(C5CCC(=O)NC5=O)C6=O)CC4)CC3)cc2)C1` (stereo partly drawn) [Compound 22, 3-(5-(4-((1-(4-((3R,5R)-5-((5-bromo-1-methyl-6-oxo-1,6-dihydropyridazin-4-yl)amino)-1-methylpiperidin-3-yl)benzoyl)piperidin-4-yl)methyl)piperazin-1-yl)-1-oxoisoindolin-2-yl)piperidine-2,6-dione], the GI50 with LASCPC-01 cells [1] (168 h, LASCPC-01, day 7, Cell Titer Glo, read-out: LASCPC GI50) amounted to 5.3 nM; in the experiment with LASCPC-01 cells [1] (LASCPC-01, comparison table with Ref-1, read-out: Growth GI50), 5 nM. Besides, the “cell growth in vitro” value with LASCPC-01 cells [1] (LASCPC-01 cells, FIG. 3) was “inhibit cell growth in vitro and in vivo”. Moreover, the “cell growth in vivo” value in the experiment on LASCPC-01 cells [2] is “inhibit cell growth in vitro and in vivo”. Also, the EC90 on KAT2A [3] (24 h, NCI-H1048, KAT2A, read-out: DC90 (the source's name)) worked out at 0.29 nM; on KAT2B (24 h, MOLM-13, KAT2B, read-out: DC90 (the source's name)), 3.6 nM. Further, the half-maximal degradation concentration (DC50) at KAT2A [3] (NCI-H1048, KAT2A, read-out: DC50) is 0.01 nM; at KAT2A [3] (NCI-H1048 cells, KAT2A, 24 h, Western Blot, vs DMSO, read-out: KAT2A NCI-H1048 DC50), less than 1 nM; at KAT2B (MOLM-13, KAT2B), 0.43 nM. The KAT2A levels entry on KAT2A [3] (NCI-H1048 cells, FIG. 1) is “potently reduce KAT2A and KAT2B levels”. The “reduction of KAT2A level” value at KAT2A [4] is “confirm such reduction”. For the same compound, the induction of differentiation result in experiment [5] is listed as “induce differentiation (e.g., epithelial, neural, and/or microglial)”. For the same compound, on KAT2B (MOLM-13 cells, FIG. 2), the KAT2B levels result is “potently reduce KAT2A and KAT2B levels”.
